The values below come from publication PMC6521598, “Identification of GLPG/ABBV-2737, a Novel Class of Corrector, Which Exerts Functional Synergy With Other CFTR Modulators” (Frontiers in Pharmacology, 2019).

In test [1] the target is T1, wild type CFTR (Homo sapiens, UniProt P13569). The experiment in a line: CFTR activity in normal HBE cells (NHBE). Particulars: forskolin 0.1 or 0.3 μM, potentiator GLPG2451 10 μM added afterwards. The class given is cell-based. Further details: University of North Carolina; host or cells: primary normal human bronchial epithelial cells. The protocol: Bronchial epithelial cells isolated from transplanted lungs from normal (wt CFTR) or CF patients homozygous for the F508del CFTR mutation, were obtained from McGill University (Montreal, QC, Canada) and University of North Carolina (Chapel Hill, NC, United States). Cells were isolated from lungs obtained from donors undergoing a planned transplantation. These primary cells were cultured directly on type IV collagen-coated polycarbonate Transwell supports with a diameter of 6.5 mm and pore size of 0.4 μm (Costar, #3397) for 18–25 days in air liquid (ali) interface essentially as previously described ([Fulcher et al., 2005]) for TECC. A similar cell culture protocol was used for Ussing chambers but using type IV collagen-coated polycarbonate Millicell supports with a diameter of 12 mm and a pore size of […] (Millicell, PIHP01250).
Corrector and/or potentiator compound(s) were added on the basolateral side of the HBEs for 24 h to rescue F508del CFTR. […] The transepithelial potential (PD) and transepithelial resistance (Rt) were measured in an open circuit and transformed to Ieq using Ohm’s law. […]
FIGURE 6 Effects of GLPG2737 on normal human bronchial epithelial cells (NHBE) and HEK cells expressing WT CFTR. […] (D) NHBE treated for 24 h with 1 μM GLPG2737 or DMSO (control), CFTR channel was activated with either 0.1 μM or 0.3μM forskolin, measured Isc shown in gray. […]

The target in test [2] is T1, wild type CFTR. Nature of the test: YFP halide assay, HEK293 cells transfected with wild type CFTR. The test is classed as cell-based. Further details: expressed in transfected cells; host or cells: HEK293. How it is done: HEK293 cells were transfected with 10–80 ng of plasmid encoding F508del, E92K, P67L, V232D, F508del/G550E, F508del/I539T or wild type CFTR and 20 ng of plasmid encoding YFP (H148Q/I152L/F47L) using jetPEI (Polyplus transfection). Directly after transfection, cells were seeded in black 96-well plates coated with poly-D-lysine at a density of 70,000 cells per well. The next day, cells were treated with corrector(s) for 24 h. After this incubation period, cells were washed twice with DPBS with Ca^2+ and Mg^2+. […] YFP fluorescence was measured using an EnVision plate reader (PerkinElmer). […] The capacity of potentiators to increase CFTR channel function was expressed as 1-(fluorescence 7 s after NaI addition (F)/fluorescence before NaI addition (F0)). […]
Due to the lack of any forskolin activated current upon correction of F508del carrying cells with GLPG2737, we wondered whether GLPG2737 would have an effect on wild type CFTR activity. […] Similar to the observations in the 24 h incubation experiment, a decrease in wild type channel activity was measured with increasing amounts of GLPG2737 (Figure 6B). Since the YFP halide assay was performed using an overexpressing cell system that might not be physiologically relevant, GLPG2737 was also evaluated on normal HBE cells.

T1 sequence (P13569 whole entry): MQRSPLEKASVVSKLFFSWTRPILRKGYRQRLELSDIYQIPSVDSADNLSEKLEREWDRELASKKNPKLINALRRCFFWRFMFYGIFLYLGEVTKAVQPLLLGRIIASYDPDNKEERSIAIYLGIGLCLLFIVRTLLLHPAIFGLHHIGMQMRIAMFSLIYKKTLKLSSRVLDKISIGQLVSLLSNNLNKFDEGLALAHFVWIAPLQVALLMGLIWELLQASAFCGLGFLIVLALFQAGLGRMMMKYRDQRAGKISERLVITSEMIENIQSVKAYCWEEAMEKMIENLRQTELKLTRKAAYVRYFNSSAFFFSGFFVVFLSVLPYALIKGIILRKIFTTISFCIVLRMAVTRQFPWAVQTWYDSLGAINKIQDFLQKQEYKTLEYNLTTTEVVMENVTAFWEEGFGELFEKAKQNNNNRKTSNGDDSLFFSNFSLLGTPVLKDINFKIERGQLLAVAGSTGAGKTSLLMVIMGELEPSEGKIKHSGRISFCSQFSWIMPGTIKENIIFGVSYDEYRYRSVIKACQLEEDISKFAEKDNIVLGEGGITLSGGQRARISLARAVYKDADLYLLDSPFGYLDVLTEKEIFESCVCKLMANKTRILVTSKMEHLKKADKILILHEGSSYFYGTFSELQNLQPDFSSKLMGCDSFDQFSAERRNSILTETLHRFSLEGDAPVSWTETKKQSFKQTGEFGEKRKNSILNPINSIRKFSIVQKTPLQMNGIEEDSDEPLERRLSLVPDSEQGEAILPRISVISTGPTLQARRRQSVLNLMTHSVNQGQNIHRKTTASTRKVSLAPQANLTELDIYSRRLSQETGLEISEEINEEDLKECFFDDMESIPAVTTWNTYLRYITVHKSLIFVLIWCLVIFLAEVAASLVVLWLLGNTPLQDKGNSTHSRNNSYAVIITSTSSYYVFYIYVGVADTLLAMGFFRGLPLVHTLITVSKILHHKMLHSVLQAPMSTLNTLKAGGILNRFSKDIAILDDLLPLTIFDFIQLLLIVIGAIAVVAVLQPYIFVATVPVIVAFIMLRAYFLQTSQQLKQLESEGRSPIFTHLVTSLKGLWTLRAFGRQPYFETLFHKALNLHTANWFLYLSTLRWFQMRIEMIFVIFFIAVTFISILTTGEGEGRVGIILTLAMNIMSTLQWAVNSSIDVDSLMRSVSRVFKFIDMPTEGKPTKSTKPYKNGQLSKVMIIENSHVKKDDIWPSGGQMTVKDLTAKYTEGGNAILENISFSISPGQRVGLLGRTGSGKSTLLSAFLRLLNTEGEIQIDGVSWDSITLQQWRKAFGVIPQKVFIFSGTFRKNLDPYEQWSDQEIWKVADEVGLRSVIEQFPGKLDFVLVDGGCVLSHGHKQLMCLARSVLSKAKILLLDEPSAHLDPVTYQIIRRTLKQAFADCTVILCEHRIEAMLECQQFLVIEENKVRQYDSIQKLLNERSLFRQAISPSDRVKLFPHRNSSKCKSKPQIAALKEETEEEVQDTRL

As for `COC1CCN(C2CCN(c3cc(C(=O)NS(=O)(=O)N(C)C)nc4c3c(C3CCC3)nn4-c3ccc(F)cc3)CC2)CC1` [GLPG2737], the CFTR activity entry at wild type CFTR [1] is “reduced CFTR activity which could be rescued upon addition of a potentiator”. Also, the “wild type CFTR activity” value at wild type CFTR [2] (24 h incubation with a dose range, 100 nM FSK) is “dose dependent decrease”. At wild type CFTR [2] (acute addition together with forskolin (100 nM)), the “wild type channel activity” value is reported as “decrease”.
